Test system: fEPSP of CA1 area of mouse hippocampal slice
Assay: Electrophysiological recording of fEPSP in hippocampal slices
Type: cell-based
Conditions: AM-251 2 µM; JWH-175 and JWH-018 both at 1 µM; data not shown
Protocol: Procedures for tissue preparation are the same as those described by Ossato et al., 2016 [45]. In brief, after mouse decapitation, the head was immediately chilled in refrigerated artificial cerebrospinal fluid (aCSF, 0 °C) of the following composition (in mM): NaCl, 126; KCl, 2; KH2PO4, 1.25; NaHCO3, 26; MgSO4, 2.0; CaCl2, 2.5; d-glucose, 10. After 1 min, the brain was extracted to isolate the hippocampus and then placed in ice-cold artificial cerebrospinal fluid (aCSF). All solutions were saturated with 95% O2/5% CO2. Transverse hippocampal slices (425 μm thick) were cut with a tissue chopper and then placed for almost 90 min in a Haas-style incubation chamber for recovery before recording.
A single slice was transferred into a submerged-type recording chamber (3 mL total volume) and continuously superfused (3.0 mL/min) with warmed (32–33 °C) aCSF. WINLTP 2.10 computer software was used for stimulus triggering, PC recording, and analysis. Synaptic responses of CA1 pyramidal neurons were elicited by electrical stimulation of the Schaffer collateral/commissural pathway. Single stimulation pulses (80 µs duration; 0.05 Hz) were delivered by mean of a concentric bipolar electrode (o.d. 125 μm, FHC, USA) connected to a Grass S11 stimulator driving a PSIU6 constant current stimulus isolation unit. To record the fEPSPs, borosilicate glass electrodes fabricated using a microelectrode puller (P97, Sutter Instruments) and filled with aCSF (1.5 ± 0.5 MΩ), inserted in the distal third of the stratum radiatum and 200–300 µm away from stimulating electrodes, were used. The maximal fEPSPs response was reached by adjusting the recording electrode depth. Recorded potentials were amplified (Axoprobe 1A DC-coupled—Cyberamp 320, Molecular Devices, Sunnyvale, CA, USA) and filtered (5.0 kHz) prior to A/D conversion. Upon 10 min of stable synaptic response, a stimulus–response curve (SRC) was generated as previously described to extrapolate a stimulation intensity evoking 70% of maximal fEPSP, to be used throughout the experiment. […] To investigate whether the vehicle had any effect on synaptic activity, the superfusion inlet was switched to a reservoir containing aCSF plus the amount of vehicle present for the corresponding drug concentration (sham application), before switching to the solution also including the drug, for comparison. All reservoirs and tubing were on glass or Teflon to avoid the capturing of cannabinoids by plastic or silicon parts.
We analyzed data from in vitro recordings as previously described. […] Effect of treatment was considered steady state when stable +/− 5% for 10 min.

Cc1c(C(=O)NN2CCCCC2)nn(-c2ccc(Cl)cc2Cl)c1-c1ccc(I)cc1 [AM-251, 1-(2,4-dichlorophenyl)-5-(4-iodophenyl)-4-methyl-N-1-piperidinyl-1H-pyrazole-3-carboxamide]
effect of AM-251 perfusion on the inhibitory effect of JWH-175 and JWH-018 on fEPSP: completely prevented

Source: publication PMC9318133 (International Journal of Molecular Sciences, 2022)
